In brackets after ≈: the same amount, converted by molar mass.
Legend:
SK-MEL-2 = assay: Cytotoxicity against human SK-MEL-2 cells after 72 hrs by SRB assay; format: functional; settings: SK-MEL-2, 72 h, read-out: ED50 (the source's name)
[1] = Cytotoxicity against human multidrug resistant KBV1 cells in absence of vinblastine after 72 hrs by SRB assay; format: functional; settings: KB-V1, 72 h, read-out: ED50 (the source's name)
Lu1 = assay: Cytotoxicity against human Lu1 cells after 72 hrs by SRB assay; format: functional; settings: Lu1, 72 h, read-out: ED50 (the source's name)
HT = assay: Cytotoxicity against human HT cells after 72 hrs by SRB assay; format: functional; settings: read-out: ED50 (the source's name)
[2] = Cytotoxicity against human multidrug resistant KBV1 cells in presence of vinblastine; format: functional; settings: KB-V1, read-out: ED50 (the source's name)
LNCaP = assay: Cytotoxicity against human LNCAP cells after 72 hrs by SRB assay; format: functional; settings: read-out: ED50 (the source's name)
ZR-75-1 = assay: Cytotoxicity against human ZR-75-1 cells after 72 hrs by SRB assay; format: functional; settings: ZR-75-1, 72 h, read-out: ED50 (the source's name)
Col2 = assay: Cytotoxicity against human Col2 cells after 72 hrs by SRB assay; format: functional; settings: Col2, 72 h, read-out: ED50 (the source's name)
P388 = assay: Cytotoxicity against mouse P388 cells after 72 hrs by SRB assay; format: functional; settings: P388, 72 h, read-out: ED50 (the source's name)
A-431 = assay: Cytotoxicity against human A431 cells after 72 hrs by SRB assay; format: functional; settings: A-431, 72 h, read-out: ED50 (the source's name)
[3] = Cytotoxicity against human BC1 cells after 72 hrs by SRB assay; format: functional; settings: BC1, 72 h, read-out: ED50 (the source's name)
[4] = Cytotoxicity against human KB3 cells after 72 hrs by SRB assay; format: functional; settings: KB3, 72 h, read-out: ED50 (the source's name)
[5] = Cytotoxicity against human U373 cells after 72 hrs by SRB assay; format: functional, U-373MG ATCC; settings: U373 MG, read-out: ED50 (the source's name)

## CN1CCc2cc3c(c4c2[C@H]1Cc1ccccc1-4)OCO3
SK-MEL-2
  EC50: > 20 µg/mL
[1]
  EC50: > 20 µg/mL
Lu1
  EC50: 6.6 µg/mL (≈ 23.6 µM)
HT
  EC50: 6.4 µg/mL (≈ 22.9 µM)
[2]
  EC50: 0.6 µg/mL
LNCaP
  EC50: 10.7 µg/mL (≈ 38.3 µM)
ZR-75-1
  EC50: > 20 µg/mL
Col2
  EC50: 5.8 µg/mL (≈ 20.8 µM)
P388
  EC50: > 5 µg/mL
A-431
  EC50: 4.3 µg/mL (≈ 15.4 µM)
[3]
  EC50: 8.3 µg/mL (≈ 29.7 µM)
[4]
  EC50: > 20 µg/mL
[5]
  EC50: 5 µg/mL (≈ 17.9 µM)

From ChEMBL document CHEMBL1159240, “(-)-Roemerine, an aporphine alkaloid from Annona senegalensis that reverses the multidrug-resistance phenotype with cultured cells” (1995)
